This passage reports IC50 results from patent publication US9255100B2 (BAYER INTELLECTUAL PROPERTY GMBH, priority 2010, dated 2016).

This test concerns the target T1, N-terminally GST-tagged human full length recombinant Mps-1 kinase (Homo sapiens, UniProt P33981).
T1 construct: N-terminally GST-tagged human full length recombinant Mps-1 kinase; purchased Invitrogen, Karslruhe, Germany PV4071
T1 sequence (P33981 1-857): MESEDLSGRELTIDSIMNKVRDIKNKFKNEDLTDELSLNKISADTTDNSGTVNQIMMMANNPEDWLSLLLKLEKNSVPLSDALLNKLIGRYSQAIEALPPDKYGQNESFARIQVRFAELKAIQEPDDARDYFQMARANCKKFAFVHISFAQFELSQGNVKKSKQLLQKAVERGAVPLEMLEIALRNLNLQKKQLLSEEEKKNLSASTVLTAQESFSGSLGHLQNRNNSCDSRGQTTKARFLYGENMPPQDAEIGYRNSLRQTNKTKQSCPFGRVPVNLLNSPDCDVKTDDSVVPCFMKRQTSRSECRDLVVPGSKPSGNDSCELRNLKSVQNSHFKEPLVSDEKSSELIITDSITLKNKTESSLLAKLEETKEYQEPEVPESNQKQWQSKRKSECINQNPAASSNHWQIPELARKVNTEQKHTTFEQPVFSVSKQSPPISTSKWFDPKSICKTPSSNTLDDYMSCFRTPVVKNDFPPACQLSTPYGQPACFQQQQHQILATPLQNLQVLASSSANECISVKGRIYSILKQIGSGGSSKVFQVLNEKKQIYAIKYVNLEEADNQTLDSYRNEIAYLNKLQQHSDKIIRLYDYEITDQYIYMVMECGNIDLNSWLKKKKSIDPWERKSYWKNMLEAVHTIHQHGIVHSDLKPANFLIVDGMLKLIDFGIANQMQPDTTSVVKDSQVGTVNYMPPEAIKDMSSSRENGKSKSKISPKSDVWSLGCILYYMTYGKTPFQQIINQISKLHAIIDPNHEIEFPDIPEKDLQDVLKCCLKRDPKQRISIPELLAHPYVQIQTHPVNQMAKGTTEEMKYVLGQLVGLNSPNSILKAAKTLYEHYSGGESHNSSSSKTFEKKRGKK
Put plainly: Mps-1 kinase assay (TR-FRET). The format is biochemical. Particulars: Mps1 IC50 [nM], 10 μM ATP, 1 μM peptide substrate, 60 min at 22° C. A digest of the protocol:
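TR-FRET signal between a Europium anti-phospho-Ser/Thr antibody and streptavidin-XLent reported phosphorylation of a biotinylated peptide by GST-tagged full-length Mps-1. Enzyme was near 1 nM final, chosen per lot for linearity.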
Background: Time-resolved FRET reads energy transfer from a long-lived donor to a nearby acceptor.
Broadly, the IC50 is the concentration at which inhibition is half-maximal. On to `Cc1cc(-c2cnc3c(NCC(C)(C)O)cc(Nc4ccccc4O)nn23)ccc1C(=O)NC1CC1` [Example 431, N-cyclopropyl-4-{8-[(2-hydroxy-2-methylpropyl)amino]-6-[(2-hydroxyphenyl)amino]imidazo[1,2-b]pyridazin-3-yl}-2-methylbenzamide], for which the IC50 was determined as 0.1 nM.
As for `COc1cc(F)ccc1Nc1cc(NCC(C)(C)O)c2ncc(-c3ccc(C(=O)NC4CC4)c(C)c3)n2n1` [Example 432, N-cyclopropyl-4-{6-[(4-fluoro-2-methoxyphenyl)amino]-8-[(2-hydroxy-2-methylpropyl)amino]imidazo[1,2-b]pyridazin-3-yl}-2-methylbenzamide], the half-maximal inhibitory concentration (IC50) is 4.6 nM.
For `Cc1cc(-c2cnc3c(NCCC(F)(F)F)cc(Nc4cccc(C(C)C)c4)nn23)ccc1C(=O)NC1CC1` [Example 433, N-cyclopropyl-2-methyl-4-(6-{[3-(propan-2-yl)phenyl]amino}-8-[(3,3,3-trifluoropropyl)amino]imidazo[1,2-b]pyridazin-3-yl)benzamide] the value was 0.6 nM; for `Cc1cc(-c2cnc3c(NCC(C)(C)O)cc(Nc4ccccc4CO)nn23)ccc1C(=O)NC1CC1` [Example 434, N-cyclopropyl-4-(6-{[2-(hydroxymethyl)phenyl]amino}-8-[(2-hydroxy-2-methylpropyl)amino]imidazo[1,2-b]pyridazin-3-yl)-2-methylbenzamide], 1.3 nM.
For `Cc1cc(-c2cnc3c(NCC(C)(C)O)cc(Nc4ccc(CCN)cc4)nn23)ccc1C(=O)NC1CC1` [Example 435, 4-(6-{[4-(2-aminoethyl)phenyl]amino}-8-[(2-hydroxy-2-methylpropyl)amino]imidazo[1,2-b]pyridazin-3-yl)-N-cyclopropyl-2-methylbenzamide] the value was 1.6 nM; for `Cc1cc(-c2cnc3c(NCCC(F)(F)F)cc(Oc4ccc(F)nc4)nn23)ccc1C(=O)NC1CC1` [Example 436, N-cyclopropyl-4-{6-[(6-fluoropyridin-3-yl)oxy]-8-[(3,3,3-trifluoropropyl)amino]imidazo[1,2-b]pyridazin-3-yl}-2-methylbenzamide], 0.1 nM; for `Cc1cc(-c2cnc3c(NCCC(F)(F)F)cc(Nc4cccnc4)nn23)ccc1C(=O)NC1CC1` [Example 439, N-cyclopropyl-2-methyl-4-{6-(pyridin-3-ylamino)-8-[(3,3,3-trifluoropropyl)amino]imidazo[1,2-b]pyridazin-3-yl}benzamide], 0.2 nM.
As for `Cc1cc(-c2cnc3c(NCCC(F)(F)F)cc(Nc4ccc(F)nc4)nn23)ccc1C(=O)NC1CC1` [Example 440, N-cyclopropyl-4-{6-[(6-fluoropyridin-3-yl)-amino]-8-[(3,3,3-trifluoropropyl)amino]imidazo[1,2-b]pyridazin-3-yl}-2-methylbenzamide], the IC50 turned out to be 0.1 nM.
Regarding `Cc1cc(-c2cnc3c(NCCC(F)(F)F)cc(Oc4cccc(C(C)C)c4O)nn23)ccc1C(=O)NC1CC1` [Example 441, N-cyclopropyl-4-{6-[2-hydroxy-3-(propan-2-yl)phenoxy]-8-[(3,3,3-trifluoropropyl)amino]imidazo[1,2-b]pyridazin-3-yl}-2-methylbenzamide], the IC50 came out at 0.5 nM.
With `Cc1cc(-c2cnc3c(NCCC(F)(F)F)cc(Nc4ccc(F)c(O)c4)nn23)ccc1C(=O)NC1CC1` [Example 442, N-cyclopropyl-4-{6-[(4-fluoro-3-hydroxyphenyl)amino]-8-[(3,3,3-trifluoropropyl)amino]imidazo[1,2-b]pyridazin-3-yl}-2-methylbenzamide], the IC50 worked out at 0.1 nM.
For `Cc1ccc(O)cc1Nc1cc(NCCC(F)(F)F)c2ncc(-c3ccc(C(=O)NC4CC4)c(C)c3)n2n1` [Example 443, N-cyclopropyl-4-{6-[(5-hydroxy-2-methylphenyl)amino]-8-[(3,3,3-trifluoropropyl)amino]imidazo[1,2-b]pyridazin-3-yl}-2-methylbenzamide] the value was 0.1 nM; for `Cc1cc(-c2cnc3c(NCC(C)(C)O)cc(Nc4cccc(O)c4)nn23)ccc1C(=O)NC1CC1` [Example 446, N-cyclopropyl-4-{8-[(2-hydroxy-2-methylpropyl)amino]-6-[(3-hydroxyphenyl)amino]imidazo[1,2-b]pyridazin-3-yl}-2-methylbenzamide], 0.4 nM; for `Cc1cc(-c2cnc3c(NCCCC(F)(F)F)cc(Nc4ccc(F)c(F)c4)nn23)ccc1C(=O)NC1CC1` [Example 447, N-cyclopropyl-4-{6-[(3,4-difluorophenyl)amino]-8-[(4,4,4-trifluorobutyl)amino]imidazo[1,2-b]pyridazin-3-yl}-2-methylbenzamide], 1.1 nM.
For `Cc1ccc(F)cc1Nc1cc(NCCCC(F)(F)F)c2ncc(-c3ccc(C(=O)NC4CC4)c(C)c3)n2n1` [Example 448, N-cyclopropyl-4-{6-[(5-fluoro-2-methylphenyl)amino]-8-[(4,4,4-trifluorobutyl)amino]imidazo[1,2-b]pyridazin-3-yl}-2-methylbenzamide] the value was 0.6 nM; for `Cc1cc(F)cc(Sc2cc(NCCCC(F)(F)F)c3ncc(-c4ccc(C(=O)NC5CC5)c(C)c4)n3n2)c1` [Example 449, N-cyclopropyl-4-{6-[(3-fluoro-5-methylphenyl)sulfanyl]-8-[(4,4,4-trifluorobutyl)amino]imidazo[1,2-b]pyridazin-3-yl}-2-methylbenzamide], 0.6 nM; for `Cc1cc(-c2cnc3c(NCCCC(F)(F)F)cc(Nc4cccc(F)c4F)nn23)ccc1C(=O)NC1CC1` [Example 450, N-cyclopropyl-4-{6-[(2,3-difluorophenyl)amino]-8-[(4,4,4-trifluorobutyl)amino]imidazo[1,2-b]pyridazin-3-yl}-2-methylbenzamide], 0.3 nM.
For `Cc1ccc(Cl)cc1Nc1cc(NCCCC(F)(F)F)c2ncc(-c3ccc(C(=O)NC4CC4)c(C)c3)n2n1` [Example 451, 4-{6-[(5-chloro-2-methylphenyl)amino]-8-[(4,4,4-trifluorobutyl)amino]imidazo[1,2-b]pyridazin-3-yl}-N-cyclopropyl-2-methylbenzamide] the value was 1.3 nM; for `Cc1cc(F)cc(Oc2cc(NCCCC(F)(F)F)c3ncc(-c4ccc(C(=O)NC5CC5)c(C)c4)n3n2)c1` [Example 452, N-cyclopropyl-4-{6-(3-fluoro-5-methylphenoxy)-8-[(4,4,4-trifluorobutyl)amino]imidazo[1,2-b]pyridazin-3-yl}-2-methylbenzamide], 0.8 nM.
As for `Cc1cc(-c2cnc3c(NCCC(F)(F)F)cc(Nc4cccc(O)c4C)nn23)ccc1C(=O)NC1CC1` [Example 454, N-cyclopropyl-4-{6-[(3-hydroxy-2-methylphenyl)amino]-8-[(3,3,3-trifluoropropyl)amino]imidazo[1,2-b]pyridazin-3-yl}-2-methylbenzamide], the IC50 is 0.1 nM.
On to `COc1cc(F)ccc1Nc1cc(NCCCC(F)(F)F)c2ncc(-c3ccc(C(=O)NC4CC4)c(C)c3)n2n1` [Example 457, N-cyclopropyl-4-{6-[(4-fluoro-2-methoxyphenyl)amino]-8-[(4,4,4-trifluorobutyl)amino]imidazo[1,2-b]pyridazin-3-yl}-2-methylbenzamide], for which the IC50 worked out at 5.4 nM.
For `CSc1cccc(Oc2cc(NCC(C)(C)O)c3ncc(-c4ccc(C(=O)NC5CC5)c(C)c4)n3n2)c1F` [Example 458, N-cyclopropyl-4-{6-[2-fluoro-3-(methylsulfanyl)phenoxy]-8-[(2-hydroxy-2-methylpropyl)amino]imidazo[1,2-b]pyridazin-3-yl}-2-methylbenzamide] the value was 1.1 nM; for `COC1(NC(=O)c2ccc(-c3cnc4c(NCCC(F)(F)F)cc(Oc5cccc(F)c5)nn34)cc2C)CC1` [Example 460, 4-{6-(3-fluorophenoxy)-8-[(3,3,3-trifluoropropyl)amino]imidazo[1,2-b]pyridazin-3-yl}-N-(1-methoxycyclopropyl)-2-methylbenzamide], 0.3 nM; for `Cc1cc(-c2cnc3c(NCCC(F)(F)F)cc(Oc4cncc(F)c4)nn23)ccc1C(=O)NC1CC1` [Example 464, N-cyclopropyl-4-{6-[(5-fluoropyridin-3-yl)oxy]-8-[(3,3,3-trifluoropropyl)amino]imidazo[1,2-b]pyridazin-3-yl}-2-methylbenzamide], 0.1 nM.
For `Cc1cc(-c2cnc3c(NCCC(F)(F)F)cc(Oc4cccc5c4NCCC5)nn23)ccc1C(=O)NC1CC1` [Example 466, N-cyclopropyl-2-methyl-4-{6-(1,2,3,4-tetrahydro-quinolin-8-yloxy)-8-[(3,3,3-trifluoropropyl)amino]imidazo[1,2-b]pyridazin-3-yl} benzamide] the value was 4.8 nM.
